# Data taken from patent US10827753B2, “Compositions and methods for controlling nematodes” (Monsanto Technology LLC, priority 2007, dated 2020).
# Marks after values point to notes of the source that are not given here.
# How the values were obtained:
# [1] = system: Heterodera glycines (SCN); assay: Seed treatment test of soybean cyst nematode on soybean plants; type: in vivo; details: test b
# Protocol: (§1) For a given concentration the chemical is dissolved in 500 ul of acetone and one gram of cucumber seed (RKN test) or soybean seed (SCN test) is added (e.g., 20 mg active ingredient in 500 ul acetone plus 1 gram of seed). The seed solutions are agitated until all seeds were thoroughly covered with the chemical solution. The acetone is then allowed to evaporate by air drying the seeds. The seeds are planted in 2-inch pots containing sandy soil and then the pots are inoculated with 1000 Meloidogyne incognita (RKN) or 1000 Heterodera glycines (SCN) eggs per pot three days after planting. Plants are rated for galling 14 days after egg inoculation for RKN or 28 days after egg inoculation for SCN.
# mice = details: cited from earlier work
# Meloidogyne incognita [2] = assay: Fall nematicidal field testing on squash microplots; type: in vivo; details: squash
# Description: The test site was located at 3511 Highway F in New Melle, Mo., Saint Charles county. The soil was a native prairie/pasture covering silty clay loam soil. Holes were dug using a Bobcat 763 skid loader with a 12-inch auger to a depth of 18 inches. Total volume of each hole was about 1.2 cubic feet. Six cubic yards of topsoil and 9 tons of river sand were purchased from Dardenne Farms Topsoil. Mixing to a ratio of 4 volumes sand to 1 volume soil was accomplished using a trailer-mounted 9 cubic foot concrete mixer. Holes were filled and then re-filled 5 days later after settling. The mixture was 92.5% sand, 2.5% silt, and 5% clay. Organic matter was 0.2% and pH was 6.8.
# Treatments were arranged in a block design with the blocks laid out perpendicular to the primary slope and parallel to secondary slope. There are 7 inoculated controls and 5 non-inoculated controls and the distributions of disease severity appeared independent of location.
# Application rates are expressed as kg of active material per hectare, and the mg per plot is based on the surface area of the bored and filled holes (0.000008559 Ha). The DC compounds were formulated immediately before application as follows: 1) the amount required to treat all six replicates was dissolved in 300 ml of acetone, 2) for each plot 50 ml of that solution was added to a graduated cylinder with 2 ml of 12.5% Triton X100 and the volume was raised to 500 ml with tap water. The resultant mix is the same as used in the standard greenhouse assays (10% acetone, 0.05%×100). The oxamyl treatments were prepared from Vydate 2 L formulated the same way. The 500 ml was placed in a watering can and the entire volume was evenly sprinkled over the surface of the plot. No runoff occurred and pooling, if any, was short lived. The final drench volume was 0.58 ml/cm^2, compared to 0.2 ml/cm^2 used in our greenhouse, however the microplots are much deeper so the drench volume applied per soil volume treated is roughly the same.
# Meloidogyne incognita eggs were harvested over a two week period and stored at approximately 5° C. until needed. A stock of 5.6 million vermiform eggs was adjusted to 9000/ml in 620 ml. One day after treatment, two holes were made in each plot about 7 cm apart and equidistant from the squash plants. Five ml of egg suspension was pipetted into each hole, which was then sealed and the plot lightly watered. A total of 90,000 vermiform eggs were added to each plot.
# The first root evaluation was at 28 DAT. The tops were cut off and weighed immediately in the field, and the roots were carefully dug out so as not to disturb the remaining plant.
# Meloidogyne incognita [3] = assay: Summer field evaluation of pre-plant incorporated compounds on squash; type: in vivo; details: for 0-3 vigor 16 DAP / 0-3 vigor 21 DAP / feeder root (3 = ave) 31 DAP / gall % 31 DAP / root wgt (g) 31 DAP / top wgt (lbs) 31 DAP / total fruit (lbs): 4 kg (kg/ha) PPI, squash
# In short: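 PPI simulation: compound in acetone/Triton X-100 and water mixed into 80% sand/20% silt loam with chopped galled tomato roots, filling top 15 cm of 6 replicate field plots. M. incognita eggs/larvae (100 k per plot) injected 5 cm deep; three-week-old squash cv. Liberator III planted 4 days after treatment.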
# Meloidogyne incognita [4] = assay: M. incognita miniaturized greenhouse assay on cucumber seedlings (root galling); type: in vivo; parameters: key to 1 ppm gall ratings / 1 ppm gall rating: mean of 3 gall ratings: 0=0-5%, 1=6-20%, 2=21-50%, 3=51-100% root galled
# In short: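 Compound in acetone/Triton X100 stock (5 mg/mL) diluted into water with 0.015% Triton X100 and applied to sand-planted sprouted cucumber seedlings; inoculated with 500 M. incognita eggs two days after planting. Roots harvested 10–12 days later; galling scored 0–3 by % root mass galled, averaged over triplicates, plus visual root phytotoxicity rating.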
# [5] = system: sting (Belonolaimus longicaudatus) nematodes; assay: Sting nematode bench top soil assay; type: in vivo
# Protocol: Populations of sting (Belonolaimus longicaudatus) nematodes are maintained on St. Augustine turf grass on soil in 15-cm pots. At test initiation the turf is removed from the pots and the soil containing nematode eggs, juveniles, and adults is subdivided into pots each containing a volume of 125 cm^3′ The compounds to be tested are dissolved in 3 ml of acetone using 3, 6, or 15 mg to achieve equivalent surface area application rates of 2, 4, or 10 kg/ha, respectively. The 3 ml acetone stock solution is added to 30 ml of water, and 5 ml of that solution is used to drench each of 6 replicate test pots prepared as described above. The treated pots containing nematodes are incubated in the laboratory at ambient temperature of approximately 25° C. After 3 days the soil from each pot is washed onto a modified Baermann apparatus comprised of a screen supporting a layer of filter paper on which the soil sample is placed and set in a dish of water. The samples are then incubated at 25° C. for 24 hours to allow the live nematodes to migrate through the paper and screen and into a water reservoir to be collected for counting with a light microscope. Nematodes that have been killed or immobilized by the test compounds are not able to migrate into the reservoir.
# [6] = system: Meloidogyne incognita (RKN); assay: Seed treatment test of root knot nematode on cucumber plants; type: in vivo; details: 20 mg ai/gram seed, cucumber seeds
# Protocol: as §1
# [7] = system: CD-1/Swiss derived albino mice; type: in vivo; details: 500 mg/kg oral, three female mice, observed up to 14 days
# Protocol: Acute oral toxicity testing was performed in mice in accordance with test method P203.UDP, as administered by Eurofins/Product Safety Laboratories (Dayton, N.J.). CD-1/Swiss derived albino mice were obtained and group housed in suspended solid bottom caging. The mice were fed rodent chow and filtered tap water was supplied ad libitum. Following acclimation to the laboratory setting, a group of animals was fasted overnight by removing food from the cages. After the fasting period, three female mice were selected based on vitality and initial body weights. The individual compound doses were calculated from these body weights.
# The test substance was prepared as a 1% (50 mg/kg) or 5% (500 mg/kg) weight to weight (w/w) mixture in a 0.5% w/w solution of carboxymethylcellulose (CMC) in distilled water. A tissue homogenizer was used to create a homogeneous mixture. A dose of 50 or 500 mg/kg was administered to three healthy mice per dose level by oral intubation using a ball-tipped gavage needle attached to a syringe. After administration, the animals were returned to their cages, and feed was replaced immediately after dosing.
# Body weights were recorded prior to initiation and on Days 7 and 14 or a soon as possible after death.
# root knot nematode = assay: Pre-plant incorporated (PPI) greenhouse test of root knot nematode on cucumber plants; type: in vivo, Meloidogyne incognita; details: Meloidogyne incognita, fourteen day pre-plant incorporated, test b, read-out: percent control (galling reduction) relative to the control blank treatment; for pest or weed control at 4000 g/ha: 4 kg/ha rate; for pest or weed control at 8000 g/ha: 8 ka/ha rate
# Description: The PPI test examines the effect of pre-incorporation of compounds in soil and longer aging to simulate in furrow methods of nematicide application in the field. The PPI test exposes compounds to a higher volume of soil and drying which can result in more severe soil binding. Compounds are also aged for longer periods which can lead to more extensive biotic and abiotic degradation further limiting activity.
# The chemically treated soil (sandy soil mix) for all treatment days (e.g., 7 days, 14 days, 21 days) treatments is potted into their appropriate pots. On the same day the 7 day treatment pots are seeded. One week later eggs are applied and 14 days after egg application the test is harvested. The 14 day treatments are planted 7 days after the first planting. The 14 day planting and 7 day inoculation happen on the same day. One week later the 14 day treatments are inoculated with eggs. These are harvested 14 days after the inoculation. The 21 day treatments are planted 14 days after the first planting. The 14 day inoculation and 21 day planting are done on the same day. One week later the 21 day plants are inoculated with eggs. The 7 day treatment is harvested the same day as the 21 day inoculation. Fourteen days after inoculation the 21 day plants are harvested.
# For each compound a stock is prepared using 4 mg material in 4 ml of acetone. The soil is mixed by placing 80 ml of field soil and 320 ml of sand in a plastic bag and mixing well. The formulation for treatment is done by adding 2.13 ml (8 kg/ha rate), 1.06 ml (4 kg/ha rate) or 0.53 ml (2 kg/ha rate) to a vial and raising it with 10 ml in 0.05%×100. Soil is then treated by adding the entire 10 ml to the 400 ml of mix in the bag. The treated soil is immediately mixed well in the sealed bag to distribute the compound evenly. Approximately 95 ml is used to fill each 2-inch square pot up to the top with some soil compression and flattening. For each compound and for the control treatments 4 pots are filled. All pots are watered until moist but with no run-out through the bottom.
# The PPI test simulates 8, 4 and 2 kg/ha rates incorporated 15 cm deep in the field and is equivalent to the 2, 1 and 0.5 kg/ha drench application rates in the standard 2-inch pot cucumber greenhouse assay.
# [8] = system: caspase-3 in rat hepatoma derived H4IIE cells; assay: Caspase-3 activity (DEVD-AMC) after compound exposure in H4IIE cells; type: cell-based; details: concentrations up to 300 μM
# Protocol: Caspase 3 cleaves the tetrapeptide between D and AMC, thus releasing the fluorogenic […] AMC. Following the test article exposure to cells in 96-well plates, medium was aspirated from plates and PBS added to each well. Plates were stored at −80° C. to lyse cells and store samples until further analysis. On the day of analysis, plates were removed from freezer and thawed. Caspase buffer with fluorescent substrate was added to each well and incubated at room temperature for one hour. AMC release was measured in a spectrofluorometer at an excitation wavelength of 360 nm and an emission wavelength of 460 nm. Values are expressed as relative fluorescent units (RFU).
smiles,measurement,setting,value
"CNC(=O)O/N=C(\SC)C(=O)N(C)C [Oxamyl, oxamyl, reference compound]",percent cyst reduction relative to control blank treatment,[1]; 0.375 mg al/gram seed,−4^b percent
same,percent cyst reduction relative to control blank treatment,[1]; 1.5 mg al/gram seed,71^b percent
same,oral LD50 in mice,mice,2.3 mg/kg
same,RG28 = % root galls at 28 days after treatment,Meloidogyne incognita [2]; 2 kg ai/ha drench,45.0%
same,RG43 = % root galls at 43 days after treatment,Meloidogyne incognita [2]; 2 kg ai/ha drench,42.3%
same,RG28 = % root galls at 28 days after treatment,Meloidogyne incognita [2]; 5 kg ai/ha drench,10.5%
same,RG43 = % root galls at 43 days after treatment,Meloidogyne incognita [2]; 5 kg ai/ha drench,17.3%
same,0-3 vigor 16 DAP,Meloidogyne incognita [3],2.7
same,0-3 vigor 21 DAP,Meloidogyne incognita [3],2.5
same,feeder root (3 = ave) 31 DAP,Meloidogyne incognita [3],3.0
same,gall % 31 DAP,Meloidogyne incognita [3],85%
same,root wgt (g) 31 DAP,Meloidogyne incognita [3],37.0 g
same,top wgt (lbs) 31 DAP,Meloidogyne incognita [3],1.16 lbs
same,total fruit (lbs),Meloidogyne incognita [3],1.09 lbs
same,gall ratings,"Meloidogyne incognita [4]; 1 ppm (oxamyl standard of Table 1A), average of triplicate, scale 0-3",0.67 (1 ppm)
same,1 ppm gall ratings,Meloidogyne incognita [4]; Table 1B test a,0.67
same,1 ppm gall ratings,Meloidogyne incognita [4]; Table 1B test b,1 (1=6-20%)
same,1 ppm gall ratings,Meloidogyne incognita [4]; Table 1B test c,1.33
same,1 ppm gall ratings,Meloidogyne incognita [4]; Table 1B test d,1.33
same,1 ppm gall ratings,Meloidogyne incognita [4]; Table 1B test e,1 (1=6-20%)
same,1 ppm gall rating,Meloidogyne incognita [4]; Table 1C test a,1.33
same,1 ppm gall rating,Meloidogyne incognita [4]; Table 1C test b,1 (1=6-20%)
same,1 ppm gall rating,Meloidogyne incognita [4]; Table 1C test c,0.67^c
same,1 ppm gall rating,Meloidogyne incognita [4]; Table 1D test a,"1.33^a,"
same,1 ppm gall rating,Meloidogyne incognita [4]; Table 1D test b,1^b (1=6-20%)
Fc1ccc(-c2cnc(-c3cccs3)o2)cc1 [compound 4775],Number of nematodes recovered from treated soil after 3 days incubation with the compound,[5]; 2 kg/ha,15
same,Number of nematodes recovered from treated soil after 3 days incubation with the compound,[5]; 4 kg/ha,7
same,Number of nematodes recovered from treated soil after 3 days incubation with the compound,[5]; 10 kg/ha,4
same,8 ppm gall ratings,"Meloidogyne incognita [4]; 8 ppm, average of triplicate gall rating, scale 0-3 (% root mass galled)",0 (0=0-5%)
same,percent control (galling reduction) relative to the control blank treatment,[6],77%
same,"mortality, signs of gross toxicity and behavioral changes",[7],"all animals survived, gained body weight, and appeared active and healthy"
Fc1cc(Cl)ccc1-c1cnc(-c2cccs2)o1 [compound 5915],pest or weed control at 4000 g/ha,root knot nematode,70%
same,pest or weed control at 8000 g/ha,root knot nematode,99%
same,induction of caspase-3 (apoptosis marker),[8],no induction of caspase-3
same,1 ppm gall ratings,Meloidogyne incognita [4]; Table 1B test e,0.33^e
Cc1cc(Cl)ccc1-c1nsc(-c2ccco2)n1 [compound 5938],pest or weed control at 4000 g/ha,root knot nematode,90%
same,pest or weed control at 8000 g/ha,root knot nematode,100%
same,induction of caspase-3 (apoptosis marker),[8],no induction of caspase-3
same,0-3 vigor 16 DAP,Meloidogyne incognita [3],2.5
same,0-3 vigor 21 DAP,Meloidogyne incognita [3],2.7
same,feeder root (3 = ave) 31 DAP,Meloidogyne incognita [3],2.7
same,gall % 31 DAP,Meloidogyne incognita [3],9%
same,root wgt (g) 31 DAP,Meloidogyne incognita [3],24.1 g
same,top wgt (lbs) 31 DAP,Meloidogyne incognita [3],1.60 lbs
same,total fruit (lbs),Meloidogyne incognita [3],1.22 lbs
same,control of M. incognita (in words),Meloidogyne incognita [3]; PPI application at 4 kg/ha,excellent control
same,1 ppm gall ratings,Meloidogyne incognita [4]; Table 1B test e,0.67^e
